Experiments:
Assay type in all cases: in vivo, human
Conditions in all cases: i.v. infusion over 360 min, type 2 diabetic patients
[1] = system: patients with type 2 diabetes; test: Plasma free
[2] = system: patients with type 2 diabetes; test: Capillary plasma glucose during 360-min intravenous infusion
[3] = system: patients with type 2 diabetes; test: Insulin secretion rates by deconvolution of C-peptide
[4] = system: patients with type 2 diabetes; test: Plasma glucagon during 360-min intravenous infusion

CC[C@H](C)[C@H](NC(=O)[C@H](CO)NC(=O)[C@H](Cc1ccc(O)cc1)NC(=O)[C@H](CC(=O)O)NC(=O)[C@H](CO)NC(=O)[C@@H](NC(=O)[C@H](Cc1ccccc1)NC(=O)[C@@H](NC(=O)CNC(=O)[C@H](CCC(=O)O)NC(=O)[C@H](C)NC(=O)[C@@H](N)Cc1ccc(O)cc1)[C@@H](C)O)[C@@H](C)CC)C(=O)N[C@@H](C)C(=O)N[C@@H](CCSC)C(=O)N[C@@H](CC(=O)O)C(=O)N[C@@H](CCCCN)C(=O)N[C@H](C(=O)N[C@@H](Cc1c[nH]cn1)C(=O)N[C@@H](CCC(N)=O)C(=O)N[C@@H](CCC(N)=O)C(=O)N[C@@H](CC(=O)O)C(=O)N[C@@H](Cc1ccccc1)C(=O)N[C@H](C(=O)N[C@@H](CC(N)=O)C(=O)N[C@@H](Cc1c[nH]c2ccccc12)C(=O)N[C@@H](CC(C)C)C(=O)N[C@@H](CC(C)C)C(=O)N[C@@H](C)C(=O)N[C@@H](CCC(N)=O)C(=O)N[C@@H](CCCCN)C(=O)NCC(=O)N[C@@H](CCCCN)C(=O)N[C@@H](CCCCN)C(=O)N[C@@H](CC(N)=O)C(=O)N[C@@H](CC(=O)O)C(=O)N[C@@H](Cc1c[nH]c2ccccc12)C(=O)N[C@@H](CCCCN)C(=O)N[C@@H](Cc1c[nH]cn1)C(=O)N[C@@H](CC(N)=O)C(=O)N[C@H](C(=O)N[C@H](C(=O)N[C@@H](CCC(N)=O)C(=O)O)[C@@H](C)O)[C@@H](C)CC)C(C)C)[C@@H](C)CC [GIP, glucose-dependent insulinotropic polypeptide]
Effect on plasma concentrations of free fatty acids [1]: did not alter
Effect on glucose concentrations [2]: slight reduction
Effect on insulin secretion (words; insulin, C-peptide, insulin secretory rates) [3]: hardly did so
Effect on glucagon concentrations [4]: tended to increase slightly

From article PMC3064100 (Diabetes, 2011)
